Data taken from US20240261297A1, “ANTI-CDK INHIBITORS FOR CANCER TREATMENT” (St. John's Cancer Institute, priority 2021, published 2024).
Read-outs that look alike come from different tables or passages of the source.

Assays:
[1] = target: CDK1/cyclin B (Homo sapiens, UniProt P06493); test: Radioisotope-based protein kinase assay; type: biochemical; conditions: 10 μM ATP, 3-fold dilution from 10 μM
Procedure: A series of test compounds were selected for initial screening against CDK isoforms. Protein kinase assays were performed with gold standard radioisotope-based assay formats to measuring enzyme activity remaining in presence and absence of inhibitor.

[2] = system: pCDK2 and phospho-RB in MDA-MB-468 cells; test: Western blot of pCDK2 and phospho-Rb in MDA-MB-468 cells; type: cell-based; conditions: increasing amounts
Procedure: FIGS. 3A-3B show target protein inhibition in Basal like TNBC cells. FIG. 3A is a Western blot showing pCDK2 levels in MDA-MB-468 cells with increasing dose of I-3 (CD11). FIG. 3B is a Western blot showing Phospho-Rb levels in MDA-MB-468 cells with increasing dose of I-3 (CD11).
Compound 1-3 efficacy was assessed in several in vitro assays. A nanoBrET assay was used to measure intracellular kinase activity of I-3 with CDK2, CDK1, CDK7 and CDK9. Briefly, HEK293 cells were transfected with CDK2, CDK1, CDK7 and CDK9. The transfected cells were treated in duplicate with test compound I-3 (starting at 10 μM, 10-dose with 3-fold dilution) and target engagement was measured by NanoBRET assay (FIG. 2A and Table 4). Cellular thermal shift assay (CETSA) was also performed to evaluate drug target interaction in the cells. The CETSA method is built upon two concepts: cellular thermal shift and isothermal dose-response. The cellular thermal shift assay is based on the established fact that proteins that are complexed to a ligand become more resistant to heat induced unfolding. Isothermal dose response is used to determine a compound's potency in binding the target by measuring the thermal stability of the target treated with various concentrations of compound at a fixed temperature. […]

[3] = system: caspase 3/7 in MDA-MB-468 cells; test: Caspase Glo 3/7 activity assay in MDA-MB-468 cells; type: cell-based; conditions: 24 hours
Procedure: Further anti-proliferative effect of 1-3 was evaluated in the TNBC cell line MDA-MB-468 based on biomarker (CDK2) inhibition. […] The mechanistic cell cycle block is aligned with biomarker. In addition, Caspase Glo 3/7 activation was tested to confirm the sub-G1 (apoptotic) arrest in cell cycle.

[4] = Absolute bioavailability / PK after IV and PO dosing in CD-1 male mice; type: in vivo; conditions: for Vd / AUC(0-t) / Tmax: male
Procedure: Absolute bioavailability of I-3 was assessed after IV and PO dosing in CD-1 male mice. Mean plasma concentration (FIG. 6) and PK parameters (Table 12) are shown. […] Plasma concentrations were observed up to 8 hours, and plasma concentrations were not observed at 24 hour time point. […] This is approximately 50% of the hepatic blood flow ([…]) in mice.

[5] = system: MDA-MB-231 breast cancer xenograft; test: Anti-tumor efficacy in MDA-MB-231 breast cancer xenograft model; type: in vivo, mice; conditions: p<0.0001
Procedure: (§1) Anti-tumor efficacy of I-3 was evaluated in a MDA-MB-231 breast cancer xenograft model. Briefly, mice with MDA-MB-231 tumors were randomized to three treatment groups: control (Vehicle, n=8), 1-3 IV (10 mg/kg, n=8) and 1-3 PO (10 mg/kg, n=8) on a schedule of 14 days for daily (PO) or twice weekly (IV). Oral gavage treatments were formulated in 0.1% Tween 80 and 99.9% of 0.5% (w/v) of methyl cellulose in water. Intravenous treatments were formulated in 5% (v/v) DMSO, 2.5% (v/v) absolute ethanol, 2.5% (v/v) Solutol, and 90% Normal saline. Tumor growth was measured twice weekly by using a digital vernier caliper and high resolution images of tumor bearing mice were captured using a digital camera at weekly intervals of the study (Days 0, 7 and 14). Tumor volume was calculated as follows:
Tumor Volume=[Length(L)×Width(W)^2]/2
where length (L) is the largest diameter of the tumor and width (W) is the smallest diameter of the tumor.

[6] = In vivo safety (body weight, complete blood counts) in xenograft study; parameters: species or system mice
Procedure: as §1, with “follows: […]” for “follows:”
At the end of the study, blood samples were collected from the animals for analysis of complete blood counts (CBC) using an automated hematology analyser (ADVIA2120, Siemens Ltd.). […] Once daily oral doses of 10 mg/Kg and twice weekly IV doses of 10 mg/kg were well-tolerated by the animals during the course of the treatment, with no changes in body weight or blood counts compared to vehicle control over the course of the study (Tables 14 and 15).

[7] = CD-1, mouse, plasma, male CD1 mice, PO 10 mg/kg

CDK1/cyclin B, sequence (P06493 whole entry, canonical isoform): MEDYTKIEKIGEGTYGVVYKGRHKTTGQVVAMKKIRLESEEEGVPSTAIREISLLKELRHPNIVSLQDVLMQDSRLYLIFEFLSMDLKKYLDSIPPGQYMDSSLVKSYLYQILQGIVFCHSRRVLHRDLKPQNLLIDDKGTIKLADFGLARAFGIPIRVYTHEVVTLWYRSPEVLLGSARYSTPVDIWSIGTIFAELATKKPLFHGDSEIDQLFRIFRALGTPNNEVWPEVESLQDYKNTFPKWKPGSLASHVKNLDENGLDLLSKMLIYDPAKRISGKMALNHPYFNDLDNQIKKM
CDK1/cyclin B, sequence (P14635 whole entry partner, canonical isoform): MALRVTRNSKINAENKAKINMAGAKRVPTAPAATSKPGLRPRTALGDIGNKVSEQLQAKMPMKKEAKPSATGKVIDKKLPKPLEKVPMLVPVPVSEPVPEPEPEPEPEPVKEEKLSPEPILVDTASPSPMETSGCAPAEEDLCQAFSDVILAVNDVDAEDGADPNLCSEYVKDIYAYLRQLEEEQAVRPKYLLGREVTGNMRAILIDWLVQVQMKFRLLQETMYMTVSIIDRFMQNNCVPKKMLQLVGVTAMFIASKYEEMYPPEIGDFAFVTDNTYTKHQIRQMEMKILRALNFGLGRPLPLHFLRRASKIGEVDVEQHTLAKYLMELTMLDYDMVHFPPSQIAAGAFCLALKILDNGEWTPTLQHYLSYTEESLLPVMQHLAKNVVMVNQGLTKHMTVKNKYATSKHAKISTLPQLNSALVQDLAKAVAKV

In the case of `Nc1nccc(-c2c[nH]c3nccc(Oc4cccc(F)c4)c23)n1` [I-3, 4-(4-(3-fluorophenoxy)-1H-pyrrolo[2,3-b]pyridin-3-yl)pyrimidin-2-amine], the IC50 [1] is reported as 8 nM, the pCDK2 levels [2] is reported as “reduced” and the phosphor-RB levels [2] is reported as “reduced”. The “Caspase 3/7 activation” value [3] was “clear activation of caspase 3/7”, the IC50 ([3]; Homo sapiens) was 652 nM and the half-life ([4]; CD-1, mouse, plasma, male CD1 mice, IV 1 mg/kg) was 3.4 ± 0.7 h. It also gave a clearance ([4]; CD-1, mouse, plasma, male CD1 mice, IV 1 mg/kg, read-out: CLp (converted)) of 41.7 mL/min/kg, an AUC(0-inf) [4, 7] of 6570 ± 542 ng·h/mL and a Cmax [4, 7] of 2500 ± 55.5 ng/mL. The Plasma clearance ([4]; CD-1 male mice, IV) was 41.7 mL/min/kg, the “Plasma clearance as share of hepatic blood flow (5.4 L/kg) in mice” value ([4]; CD-1 male mice, IV) was “approximately 50%” and the “Volume of distribution compared to total body water content (0.7 L/kg)” value ([4]; CD-1 male mice, IV) was 17 fold. For the same molecule, the “Time up to which plasma concentrations were observed” value ([4]; CD-1 male mice, after IV administration, not observed at 24 hour) was “up to 8 hours”, the “Bioavailability (% F)” value ([4]; male CD1 mice, PO 10 mg/kg vs IV 1 mg/kg) was 147.5 ± 14.8 % F and the Vd ([4]; CD-1, mouse, plasma, iv, 1 mg/kg, CD-1 male mice, IV, read-out: Volume of distribution) was 12.5 L/kg. For the same molecule, the AUC(0-t) ([4]; CD-1, mouse, plasma, iv, 1 mg/kg, male CD1 mice, IV 1 mg/kg) was 384 ± 98.9 ng·h/mL, the Vd ([4]; CD-1, mouse, plasma, iv, 1 mg/kg, male CD1 mice, IV 1 mg/kg, read-out: Vdss) was 6.8 ± 2.4 L/kg and the AUC(0-t) ([4]; CD-1, mouse, plasma, po, 10 mg/kg, CD-1 male mice, PO 10 mg/kg) was 5670 ng·h/mL. It also gave a Tmax ([4]; CD-1, mouse, plasma, po, 10 mg/kg, CD-1 male mice, PO 10 mg/kg, read-out: Tmax (oral absorption)) of 0.5 to 1 h, an AUC(0-t) ([4]; CD-1, mouse, plasma, po, 10 mg/kg, male CD1 mice, PO 10 mg/kg) of 5670 ± 569 ng·h/mL and a Tmax ([4]; CD-1, mouse, plasma, po, 10 mg/kg, male CD1 mice, PO 10 mg/kg, read-out: Tmax) of 1 ± 0.3 h. For the same molecule, the bioavailability ([4]; mouse, plasma, CD-1 male mice, PO 10 mg/kg, read-out: Oral suspension bioavailability (% F)) was greater than 100%, the “tumor growth inhibition (TGI)” value ([5]; IV 10 mg/kg twice weekly, 14 days, vs control) was 60% and the “tumor growth inhibition (TGI)” value ([5]; PO 10 mg/kg once daily, end of two weeks) was 54%. For the same molecule, the “Body Weight, mean ± SE” value ([6]; IV 10 mg/kg, Day 0) was 22.1 ± 0.6 g, the “Body Weight, mean ± SE” value ([6]; IV 10 mg/kg, Day 7) was 22.3 ± 1.0 g and the “Body Weight, mean ± SE” value ([6]; IV 10 mg/kg, Day 14) was 22.9 ± 0.7 g. For the same molecule, the “Hematocrit (Mean ± SE)” value ([6]; IV 10 mg/kg, end of study) was 38.4 ± 3.7%, the “Hemoglovin (Mean ± SE)” value ([6]; IV 10 mg/kg, end of study) was 12.8 ± 0.8 g/dL and the “Mean corpuscular hemoglobin (Mean ± SE)” value ([6]; IV 10 mg/kg, end of study) was 15.2 ± 0.2 pg. The “Mean corpuscular hemoglobin concentration (Mean ± SE)” value ([6]; IV 10 mg/kg, end of study) was 30.3 ± 0.2 g/dL, the “Mean corpuscular volume (Mean ± SE)” value ([6]; IV 10 mg/kg, end of study) was 50.2 ± 0.3 fL and the “Platelets (Mean ± SE)” value ([6]; IV 10 mg/kg, end of study) was 802.4 ± 107.9 10^3 cells/μL. The “Red blood cells (Mean ± SE)” value ([6]; IV 10 mg/kg, end of study) was 8.4 ± 0.5 10^6 cells/μL, the “White blood cells (Mean ± SE)” value ([6]; IV 10 mg/kg, end of study) was 22.9 ± 8.3 10^3 cells/μL and the Tolerability ([6]; PO 10 mg/Kg once daily and IV 10 mg/kg twice weekly, 14 days) was “well-tolerated”. For the same molecule, the “Body Weight, mean ± SE” value ([6]; PO 10 mg/kg, Day 0) was 21.6 ± 0.4 g, the “Body Weight, mean ± SE” value ([6]; PO 10 mg/kg, Day 7) was 20.9 ± 0.9 g and the “Body Weight, mean ± SE” value ([6]; PO 10 mg/kg, Day 14) was 21.6 ± 0.9 g. The “Hematocrit (Mean ± SE)” value ([6]; PO 10 mg/kg, end of study) was 34.2 ± 0.9%, the “Hemoglovin (Mean ± SE)” value ([6]; PO 10 mg/kg, end of study) was 10.6 ± 0.3 g/dL and the “Mean corpuscular hemoglobin (Mean ± SE)” value ([6]; PO 10 mg/kg, end of study) was 15.3 ± 0.1 pg. For the same molecule, the “Mean corpuscular hemoglobin concentration (Mean ± SE)” value ([6]; PO 10 mg/kg, end of study) was 31.1 ± 0.2 g/dL, the “Mean corpuscular volume (Mean ± SE)” value ([6]; PO 10 mg/kg, end of study) was 44.8 ± 4.1 fL and the “Platelets (Mean ± SE)” value ([6]; PO 10 mg/kg, end of study) was 762.1 ± 99.3 10^3 cells/μL. For the same molecule, the “Red blood cells (Mean ± SE)” value ([6]; PO 10 mg/kg, end of study) was 6.9 ± 0.2 10^6 cells/μL, the “White blood cells (Mean ± SE)” value ([6]; PO 10 mg/kg, end of study) was 36.6 ± 6.8 10^3 cells/μL and the “Complete blood counts vs control group” value ([6]; end of study, IV and PO 10 mg/kg) was “no significant differences”.
